Measured values from ChEMBL document CHEMBL1201862, “PubChem BioAssay data set” (2004).
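Exposure lasted 48 hours, with cells grown in 96-well plates and compounds tested at five concentrations. Abbreviation: GI50, concentration required for 50% inhibition of growth.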 Calls of active or inactive are those of the source. Cut-off read from the data, not from the text of the source: active = GI50 up to about 1.1 µM and inactive = higher.

How the values were obtained:
Experiment in all cases: growth of human tumour cells (NCI), 48 h
[1] = system: NCI-H23
[2] = system: SW-620
[3] = system: RPMI-8226
[4] = system: MDA-N
[5] = system: COLO 205
[6] = system: HCT-116
[7] = system: IGROV-1
[8] = system: DU-145
[9] = system: HOP-62
[10] = system: MCF7
[11] = system: SNB-19
[12] = system: OVCAR-5
[13] = system: A549
[14] = system: SN12C
[15] = system: SF-295
[16] = system: T47D
[17] = system: UACC-257
[18] = system: PC-3
[19] = system: CCRF-CEM

| Compound | GI50 [1] | GI50 [2] | GI50 [3] | GI50 [4] | GI50 [5] | GI50 [6] | GI50 [7] | GI50 [8] | GI50 [9] | GI50 [10] | GI50 [11] | GI50 [12] | GI50 [13] | GI50 [14] | GI50 [15] | GI50 [16] | GI50 [17] | GI50 [18] | GI50 [19] |
| --- | --- | --- | --- | --- | --- | --- | --- | --- | --- | --- | --- | --- | --- | --- | --- | --- | --- | --- | --- |
| Cc1nc([N+](=O)[O-])cn1-c1nc2ccccn2c1[N+](=O)[O-] | 47.8 µM (inactive) | > 100 µM (inactive) | 64.1 µM (inactive) | 57.4 µM (inactive) | 90.4 µM (inactive) | 74.3 µM (inactive) | 68.9 µM (inactive) | 26.5 µM (inactive) | 55.1 µM (inactive) | 95.3 µM (inactive) | 80.2 µM (inactive) | > 100 µM (inactive) | > 100 µM (inactive) | 30 µM (inactive) | > 100 µM (inactive) | 43.7 µM (inactive) | 99.3 µM (inactive) | 38.4 µM (inactive) |  |
| Nc1ccn([C@H]2CO[C@@H](CO)[C@@H]2O)c(=O)n1 | > 100 µM (inactive) | > 100 µM (inactive) | > 100 µM (inactive) | > 100 µM (inactive) | > 100 µM (inactive) | > 100 µM (inactive) | > 100 µM (inactive) | > 100 µM (inactive) | > 100 µM (inactive) | > 100 µM (inactive) |  | > 100 µM (inactive) |  | > 100 µM (inactive) | > 100 µM (inactive) | > 100 µM (inactive) | > 100 µM (inactive) | > 100 µM (inactive) | > 100 µM (inactive) |
| CCOC(=O)C1CCCC1S(=O)(=O)c1ccc(C)cc1 (configuration not stated) | > 100 µM (inactive) | > 100 µM (inactive) | > 100 µM (inactive) | > 100 µM (inactive) | > 100 µM (inactive) | > 100 µM (inactive) | > 100 µM (inactive) | > 100 µM (inactive) | > 100 µM (inactive) | > 100 µM (inactive) | > 100 µM (inactive) | > 100 µM (inactive) | > 100 µM (inactive) | > 100 µM (inactive) | > 100 µM (inactive) | > 100 µM (inactive) |  | > 100 µM (inactive) | > 100 µM (inactive) |
| C[N+](C)(C)CCN(Cc1cccs1)c1ccccn1 | 88.1 µM (inactive) | > 100 µM (inactive) | > 100 µM (inactive) | > 100 µM (inactive) | 35.2 µM (inactive) | > 100 µM (inactive) | > 100 µM (inactive) | > 100 µM (inactive) | > 100 µM (inactive) | > 100 µM (inactive) | > 100 µM (inactive) |  | 68.9 µM (inactive) | 90.4 µM (inactive) | > 100 µM (inactive) | > 100 µM (inactive) | > 100 µM (inactive) | > 100 µM (inactive) | > 100 µM (inactive) |
| C[C@@H](c1ccccc1)C(CC#N)[C@H]1CCC[C@]1(O)C#Cc1ccc2c(c1)OCO2 (some centres not stated) | 17.7 µM (inactive) | 17.9 µM (inactive) | 23.2 µM (inactive) | 16.7 µM (inactive) | 18.2 µM (inactive) |  | 14.3 µM (inactive) | 16.8 µM (inactive) | 16.8 µM (inactive) | 18.4 µM (inactive) | 16.1 µM (inactive) | 16.6 µM (inactive) | 16.3 µM (inactive) |  | 18.1 µM (inactive) | 15.7 µM (inactive) | 18.2 µM (inactive) | 15.9 µM (inactive) | 14.8 µM (inactive) |
| CCCC[C@@H]1CCN2C[C@@H](O)[C@@H](O)[C@@H]2[C@H]1O | > 100 µM (inactive) | > 100 µM (inactive) | > 100 µM (inactive) | > 100 µM (inactive) | > 100 µM (inactive) | > 100 µM (inactive) | > 100 µM (inactive) | > 100 µM (inactive) |  | > 100 µM (inactive) | > 100 µM (inactive) | > 100 µM (inactive) | > 100 µM (inactive) | > 100 µM (inactive) | > 100 µM (inactive) | > 100 µM (inactive) | > 100 µM (inactive) | > 100 µM (inactive) | > 100 µM (inactive) |
| CCCC[C@@H](C)/C=C1\CN2CCC[C@H]2[C@@](C)(O)[C@@H]1O | 32.9 µM (inactive) | > 100 µM (inactive) | > 100 µM (inactive) | > 100 µM (inactive) | > 100 µM (inactive) |  | 51.6 µM (inactive) | 17.3 µM (inactive) | 52.1 µM (inactive) | 80.2 µM (inactive) | 58.9 µM (inactive) | > 100 µM (inactive) | 43.7 µM (inactive) |  | 55.7 µM (inactive) | 30.8 µM (inactive) | > 100 µM (inactive) | > 100 µM (inactive) | 12.3 µM (inactive) |
| O=[N+]([O-])/C(C(Cl)=C(Cl)Cl)=C(\N1CCCCC1)n1nnc2ccccc21 | 19.1 µM (inactive) | 19.1 µM (inactive) | 17.2 µM (inactive) | 20.8 µM (inactive) | 17.8 µM (inactive) | 18.9 µM (inactive) | 16.2 µM (inactive) | 18.7 µM (inactive) | 22.2 µM (inactive) | 25.4 µM (inactive) | 20.9 µM (inactive) | 17.8 µM (inactive) | 22.6 µM (inactive) | 18.3 µM (inactive) | 17.5 µM (inactive) | 33.3 µM (inactive) | 17.9 µM (inactive) | 17.6 µM (inactive) |  |
| CCC(=O)NC(Nc1cccc(F)c1C)(C(F)(F)F)C(F)(F)F | > 100 µM (inactive) | > 100 µM (inactive) | > 100 µM (inactive) | > 100 µM (inactive) | > 100 µM (inactive) | > 100 µM (inactive) | > 100 µM (inactive) | > 100 µM (inactive) | > 100 µM (inactive) | > 100 µM (inactive) | > 100 µM (inactive) | > 100 µM (inactive) | > 100 µM (inactive) |  | > 100 µM (inactive) | > 100 µM (inactive) | > 100 µM (inactive) | > 100 µM (inactive) | > 100 µM (inactive) |
| COCN1C(=O)[C@@H]2C[C@@H](OC/C=C/CBr)CN2C(=O)c2ccccc21 | 23.2 µM (inactive) | 13.9 µM (inactive) |  | 15.8 µM (inactive) | 15.8 µM (inactive) | 13.2 µM (inactive) | 9.23 µM (inactive) | 19.4 µM (inactive) | 22.7 µM (inactive) | 5.78 µM (inactive) | 21.3 µM (inactive) | 20.1 µM (inactive) | 17.1 µM (inactive) | 14.1 µM (inactive) | 22.3 µM (inactive) | 19.5 µM (inactive) | 16.5 µM (inactive) | 17.1 µM (inactive) | 5.77 µM (inactive) |
| [O-][S+](C(c1ccccc1)=P(c1ccccc1)(c1ccccc1)c1ccccc1)c1ccc(Cl)cc1 (configuration not stated) | 26.7 µM (inactive) | 23.6 µM (inactive) | 6.98 µM (inactive) | 13.3 µM (inactive) |  | 20.7 µM (inactive) | 21.8 µM (inactive) | 13.9 µM (inactive) | 25.6 µM (inactive) | 17.9 µM (inactive) |  | 41.9 µM (inactive) |  |  | 33.7 µM (inactive) | 7.83 µM (inactive) | 12.5 µM (inactive) | 23.2 µM (inactive) | 20.9 µM (inactive) |
| O=c1[nH]nc(-c2ccccc2)n1/N=C\c1ccccc1 | > 100 µM (inactive) | > 100 µM (inactive) | > 100 µM (inactive) | > 100 µM (inactive) | > 100 µM (inactive) | > 100 µM (inactive) |  | > 100 µM (inactive) | > 100 µM (inactive) | > 100 µM (inactive) |  | > 100 µM (inactive) | > 100 µM (inactive) | > 100 µM (inactive) | 29 µM (inactive) | > 100 µM (inactive) | > 100 µM (inactive) | > 100 µM (inactive) | > 100 µM (inactive) |
| CC(NNC(=O)c1cc[n+]([BH2-]C#N)cc1)c1ccccc1F (configuration not stated) |  | > 100 µM (inactive) | > 100 µM (inactive) | > 100 µM (inactive) | > 100 µM (inactive) | > 100 µM (inactive) | > 100 µM (inactive) | > 100 µM (inactive) |  | > 100 µM (inactive) | > 100 µM (inactive) | > 100 µM (inactive) | > 100 µM (inactive) | > 100 µM (inactive) | > 100 µM (inactive) | > 100 µM (inactive) | > 100 µM (inactive) | > 100 µM (inactive) | > 100 µM (inactive) |
| CC(O[Si](c1ccccc1)(c1ccccc1)C(C)(C)C)[C@H](NC(=O)OC(C)(C)C)C(=O)O[Si](c1ccccc1)(c1ccccc1)C(C)(C)C (some centres not stated) | 11.7 µM (inactive) | 16.1 µM (inactive) | 10.9 µM (inactive) | 18.8 µM (inactive) | 13.2 µM (inactive) | 11.2 µM (inactive) | 14.9 µM (inactive) | 12.6 µM (inactive) | 18.2 µM (inactive) | 17.9 µM (inactive) | 15.5 µM (inactive) | 15.9 µM (inactive) | 11 µM (inactive) |  | 8.04 µM (inactive) | 5.41 µM (inactive) | 14.9 µM (inactive) | 8.38 µM (inactive) | 20 µM (inactive) |
| Cc1cc(-c2nc3cccc(O)c3s2)ccc1N | 24.6 µM (inactive) | 46.9 µM (inactive) | 45.2 µM (inactive) | 31.3 µM (inactive) | 24.2 µM (inactive) | 27.3 µM (inactive) | 22.2 µM (inactive) | > 100 µM (inactive) | 27 µM (inactive) | 12.5 µM (inactive) | < 0.01 µM (active) |  | 15.7 µM (inactive) | 39.9 µM (inactive) | 28.8 µM (inactive) | 62.5 µM (inactive) | 37.2 µM (inactive) | 27.7 µM (inactive) | 25.8 µM (inactive) |
